According to PubChem BioAssay (NCI):
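The compound was tested at five concentrations on cells cultured in 96-well plates, with a 48-hour exposure period. TGI marks complete inhibition of growth.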

Legend:
Experiment in all cases: NCI tumour cell line growth inhibition, 48 h
UACC-62 melanoma = tested on: UACC-62 melanoma
SK-MEL-2 melanoma = tested on: SK-MEL-2 melanoma
786-0 renal = tested on: 786-0 renal
IGROV1 ovarian = tested on: IGROV1 ovarian
SN12C renal = tested on: SN12C renal
ACHN renal = tested on: ACHN renal
CCRF-CEM leukemia = tested on: CCRF-CEM leukemia
OVCAR-3 ovarian = tested on: OVCAR-3 ovarian
NCI/ADR-RES ovarian = tested on: NCI/ADR-RES ovarian
HCC-2998 colon = tested on: HCC-2998 colon
UACC-257 melanoma = tested on: UACC-257 melanoma
SK-MEL-28 melanoma = tested on: SK-MEL-28 melanoma
HL-60(TB) leukemia = tested on: HL-60(TB) leukemia
HCT-116 colon = tested on: HCT-116 colon
SK-MEL-5 melanoma = tested on: SK-MEL-5 melanoma
BT-549 breast = tested on: BT-549 breast
PC-3 prostate = tested on: PC-3 prostate
LOX IMVI melanoma = tested on: LOX IMVI melanoma
A549 NSCLC = tested on: A549 NSCLC
K-562 leukemia = tested on: K-562 leukemia
HOP-92 NSCLC = tested on: HOP-92 NSCLC
CAKI-1 renal = tested on: CAKI-1 renal
HCT-15 colon = tested on: HCT-15 colon
A498 renal = tested on: A498 renal
HT29 colon = tested on: HT29 colon
MDA-MB-435 = tested on: MDA-MB-435
SF-539 CNS = tested on: SF-539 CNS
MDA-MB-231 breast = tested on: MDA-MB-231 breast
COLO 205 colon = tested on: COLO 205 colon
SF-295 CNS = tested on: SF-295 CNS
OVCAR-5 ovarian = tested on: OVCAR-5 ovarian
KM12 colon = tested on: KM12 colon
NCI-H460 lung = tested on: NCI-H460 lung
OVCAR-4 ovarian = tested on: OVCAR-4 ovarian
UO-31 renal = tested on: UO-31 renal
SW-620 colon = tested on: SW-620 colon
MALME-3M melanoma = tested on: MALME-3M melanoma
TK-10 renal = tested on: TK-10 renal
MDA-N = tested on: MDA-N
U251 CNS = tested on: U251 CNS
NCI-H23 lung = tested on: NCI-H23 lung
EKVX NSCLC = tested on: EKVX NSCLC
SNB-19 CNS = tested on: SNB-19 CNS
SK-OV-3 ovarian = tested on: SK-OV-3 ovarian
SNB-75 CNS = tested on: SNB-75 CNS
MCF7 breast = tested on: MCF7 breast
DU-145 prostate = tested on: DU-145 prostate
SF-268 CNS = tested on: SF-268 CNS
OVCAR-8 ovarian = tested on: OVCAR-8 ovarian
NCI-H522 lung = tested on: NCI-H522 lung
HOP-62 NSCLC = tested on: HOP-62 NSCLC
M14 melanoma = tested on: M14 melanoma
RXF 393 renal = tested on: RXF 393 renal
T-47D breast = tested on: T-47D breast
NCI-H226 lung = tested on: NCI-H226 lung
HS 578T breast = tested on: HS 578T breast
RPMI-8226 leukemia = tested on: RPMI-8226 leukemia

## CC(=O)O[C@H](C[C@@H](C)[C@H]1C(=O)[C@H](O)[C@@]2(C)C3CC[C@H]4C(C)(C)[C@@H](OC5OCC(O)C(O)C5O)CC[C@@]45C[C@@]35CC[C@]12C)[C@@H]1OC1(C)C (some centres not stated)
UACC-62 melanoma
  TGI: 27 µM
SK-MEL-2 melanoma
  TGI: 29.5 µM
786-0 renal
  TGI: 30.2 µM
IGROV1 ovarian
  TGI: 29.7 µM
SN12C renal
  TGI: 35.7 µM
ACHN renal
  TGI: 29.4 µM
CCRF-CEM leukemia
  TGI: > 100 µM
OVCAR-3 ovarian
  TGI: 7.18 µM
NCI/ADR-RES ovarian
  TGI: > 100 µM
HCC-2998 colon
  TGI: 29.8 µM
UACC-257 melanoma
  TGI: 34.8 µM
SK-MEL-28 melanoma
  TGI: 44.7 µM
HL-60(TB) leukemia
  TGI: 22.6 µM
HCT-116 colon
  TGI: 38 µM
SK-MEL-5 melanoma
  TGI: 29.7 µM
BT-549 breast
  TGI: 51.4 µM
PC-3 prostate
  TGI: 30.4 µM
LOX IMVI melanoma
  TGI: > 100 µM
A549 NSCLC
  TGI: > 100 µM
K-562 leukemia
  TGI: 15.3 µM
HOP-92 NSCLC
  TGI: 30.6 µM
CAKI-1 renal
  TGI: 33.3 µM
HCT-15 colon
  TGI: 55.4 µM
A498 renal
  TGI: 29.3 µM
HT29 colon
  TGI: > 100 µM
MDA-MB-435
  TGI: 36.2 µM
SF-539 CNS
  TGI: 29.8 µM
MDA-MB-231 breast
  TGI: 34.7 µM
COLO 205 colon
  TGI: 61.3 µM
SF-295 CNS
  TGI: 33.6 µM
OVCAR-5 ovarian
  TGI: 32 µM
KM12 colon
  TGI: 53.8 µM
NCI-H460 lung
  TGI: 30.6 µM
OVCAR-4 ovarian
  TGI: 64.5 µM
UO-31 renal
  TGI: 54.7 µM
SW-620 colon
  TGI: > 100 µM
MALME-3M melanoma
  TGI: 32.4 µM
TK-10 renal
  TGI: 29.8 µM
MDA-N
  TGI: 40.2 µM
U251 CNS
  TGI: 29.9 µM
NCI-H23 lung
  TGI: 55.4 µM
EKVX NSCLC
  TGI: 44.3 µM
SNB-19 CNS
  TGI: 65.4 µM
SK-OV-3 ovarian
  TGI: 26.4 µM
SNB-75 CNS
  TGI: 26.1 µM
MCF7 breast
  TGI: 34.8 µM
DU-145 prostate
  TGI: 37.7 µM
SF-268 CNS
  TGI: 46.7 µM
OVCAR-8 ovarian
  TGI: 41.3 µM
NCI-H522 lung
  TGI: 33.8 µM
HOP-62 NSCLC
  TGI: 31.1 µM
M14 melanoma
  TGI: 94.5 µM
RXF 393 renal
  TGI: 34.1 µM
T-47D breast
  TGI: 63.6 µM
NCI-H226 lung
  TGI: 33.2 µM
HS 578T breast
  TGI: > 100 µM
RPMI-8226 leukemia
  TGI: 26.4 µM
